Experimental data as given in US20160250303A1, “PERFORIN-2 ACTIVATORS AND INHIBITORS AS DRUG TARGETS FOR INFECTIOUS DISEASE AND GUT INFLAMMATION” (UNIVERSITY OF MIAMI, priority 2013, published 2016).

System: P-2 mediated bacterial killing
Assay: Perforin-2 mediated killing of MRSA by BV2 phagocytic cells in vitro (FIG. 14c)
Details: phagocytic cell BV2, in vitro, listed as MLN4294

## NS(=O)(=O)OC[C@@H]1CC(n2ccc3c(N[C@H]4CCc5ccccc54)ncnc32)C[C@@H]1O (stereo partly shown) [MLN 4924]
  P-2 mediated bacterial killing: blocked
